Test results taken from patent publication US11192891B2, “Diazaspiro ROCK inhibitors” (BRISTOL-MYERS SQUIBB COMPANY, priority 2017, dated 2021).

Target: ROCK2 (Homo sapiens, UniProt O75116)
Experiment: ROCK kinase inhibition assay, FITC peptide substrate, LABCHIP 3000 readout
Format: biochemical
Conditions: 5 μM ATP, 1.5 μM peptide substrate
Method in brief: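 Tested across a concentration range, with percent inhibition of kinase activity derived per concentration. Peptide phosphorylation, initiated by adding the Rho kinase variant (final DMSO <2%), was quenched with EDTA and substrate/product resolved by mobility shift.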

Sequence of ROCK2 (O75116 whole entry, species assumed): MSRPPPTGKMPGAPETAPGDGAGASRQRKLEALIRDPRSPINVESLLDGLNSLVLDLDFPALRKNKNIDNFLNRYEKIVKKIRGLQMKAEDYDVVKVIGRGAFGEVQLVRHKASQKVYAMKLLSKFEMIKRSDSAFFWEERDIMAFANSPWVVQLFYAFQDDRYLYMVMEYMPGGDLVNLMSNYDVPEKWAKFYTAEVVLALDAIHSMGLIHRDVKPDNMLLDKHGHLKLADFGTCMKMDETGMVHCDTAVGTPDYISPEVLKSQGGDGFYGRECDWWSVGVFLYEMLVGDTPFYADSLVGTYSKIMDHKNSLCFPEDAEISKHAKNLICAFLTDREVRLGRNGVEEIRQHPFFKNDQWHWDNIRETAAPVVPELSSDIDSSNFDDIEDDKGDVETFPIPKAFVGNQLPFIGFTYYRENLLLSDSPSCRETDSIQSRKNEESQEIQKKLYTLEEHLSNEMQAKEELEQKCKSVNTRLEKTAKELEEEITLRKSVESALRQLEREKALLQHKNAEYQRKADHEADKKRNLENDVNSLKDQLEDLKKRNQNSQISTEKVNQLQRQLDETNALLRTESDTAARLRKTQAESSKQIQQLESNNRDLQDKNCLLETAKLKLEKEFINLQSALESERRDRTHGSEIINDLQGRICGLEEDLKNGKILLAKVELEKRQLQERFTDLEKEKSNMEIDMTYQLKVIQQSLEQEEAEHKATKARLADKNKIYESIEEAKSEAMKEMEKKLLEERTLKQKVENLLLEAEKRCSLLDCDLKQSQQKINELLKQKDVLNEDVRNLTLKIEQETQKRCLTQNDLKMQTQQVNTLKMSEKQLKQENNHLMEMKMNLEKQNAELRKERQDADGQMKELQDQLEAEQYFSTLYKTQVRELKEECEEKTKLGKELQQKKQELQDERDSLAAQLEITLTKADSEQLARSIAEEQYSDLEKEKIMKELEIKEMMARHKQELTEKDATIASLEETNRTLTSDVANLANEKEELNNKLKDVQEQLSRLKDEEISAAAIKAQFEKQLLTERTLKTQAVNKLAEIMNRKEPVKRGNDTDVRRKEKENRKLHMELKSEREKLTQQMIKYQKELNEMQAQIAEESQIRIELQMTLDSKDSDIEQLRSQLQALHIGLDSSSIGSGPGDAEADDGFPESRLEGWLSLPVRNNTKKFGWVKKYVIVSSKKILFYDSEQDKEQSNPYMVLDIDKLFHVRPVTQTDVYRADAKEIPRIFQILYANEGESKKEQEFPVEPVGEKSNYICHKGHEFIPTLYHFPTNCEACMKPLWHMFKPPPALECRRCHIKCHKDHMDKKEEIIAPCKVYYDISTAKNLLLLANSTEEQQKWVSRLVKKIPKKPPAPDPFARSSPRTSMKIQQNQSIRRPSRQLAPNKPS

Row | SMILES | IC50 [nM]
1 | COc1cc(N2CCC3(CCN(C(=O)c4cc(C5CC5)n[nH]4)CC3)C2=O)ccc1-c1cn[nH]c1 [Example 111, 8-(3-cyclopropyl-1H-pyrazole-5-carbonyl)-2-[3-methoxy-4-(1H-pyrazol-4-yl)phenyl]-2,8-diazaspiro[4.5]decan-1-one] | 17
2 | COc1ccc(-c2cc(C(=O)N3CCC4(CC3)CCN(c3ccc(-c5cn[nH]c5)c(OC)c3)C4=O)on2)cc1 [Example 113, 2-[3-methoxy-4-(1H-pyrazol-4-yl)phenyl]-8-[3-(4-methoxyphenyl)-1,2-oxazole-5-carbonyl]-2,8-diazaspiro[4.5]decan-1-one] | 17
3 | COc1cc(N2CCC3(CCN(C(=O)c4ccc(-n5cnnn5)cc4)CC3)C2=O)ccc1-c1cn[nH]c1 [Example 118] | 57
4 | COc1cc(N2CCC3(CCN(C(=O)c4cnc(C)nc4)CC3)C2=O)ccc1-c1cn[nH]c1 [Example 121, 2-[3-methoxy-4-(1H-pyrazol-4-yl)phenyl]-8-(2-methylpyrimidine-5-carbonyl)-2,8-diazaspiro[4.5]decan-1-one] | 585
5 | COc1ccc(C(=O)N2CCC3(CC2)CCN(c2ccc(-c4cn[nH]c4)c(OC)c2)C3=O)c(Cl)c1 [Example 122, 8-(2-chloro-4-methoxybenzoyl)-2-[3-methoxy-4-(1H-pyrazol-4-yl)phenyl]-2,8-diazaspiro[4.5]decan-1-one] | 11
6 | COc1cc(N2CCC3(CCN(C(=O)c4ccc(Cl)cn4)CC3)C2=O)ccc1-c1cn[nH]c1 [Example 123, 8-(5-chloropyridine-2-carbonyl)-2-[3-methoxy-4-(1H-pyrazol-4-yl)phenyl]-2,8-diazaspiro[4.5]decan-1-one] | 65
7 | COc1cc(N2CCC3(CCN(C(=O)c4nnc(-c5ccccn5)[nH]c4=O)CC3)C2=O)ccc1-c1cn[nH]c1 [Example 125, 2-[3-methoxy-4-(1H-pyrazol-4-yl)phenyl]-8-[5-oxo-3-(pyridin-2-yl)-4,5-dihydro-1,2,4-triazine-6-carbonyl]-2,8-diazaspiro[4.5]decan-1-one] | 26
8 | COc1cc(N2CCC3(CCN(C(=O)c4ccc(N5CCCNC5=O)cc4)CC3)C2=O)ccc1-c1cn[nH]c1 [Example 126, 2-[3-methoxy-4-(1H-pyrazol-4-yl)phenyl]-8-[4-(2-oxo-1,3-diazinan-1-yl)benzoyl]-2,8-diazaspiro[4.5]decan-1-one] | 7.7
9 | COc1cc(N2CCC3(CCN(C(=O)c4ccc(N5CCCC5=O)cc4)CC3)C2=O)ccc1-c1cn[nH]c1 [Example 128, 2-[3-methoxy-4-(1H-pyrazol-4-yl)phenyl]-8-[4-(2-oxopyrrolidin-1-yl)benzoyl]-2,8-diazaspiro[4.5]decan-1-one] | 13
10 | COc1cc(N2CCC3(CCN(C(=O)c4cc(=O)n5nnnc5[nH]4)CC3)C2=O)ccc1-c1cn[nH]c1 [Example 129, 2-[3-methoxy-4-(1H-pyrazol-4-yl)phenyl]-8-{7-oxo-4H,7H-[1,2,3,4]tetrazolo[1,5-a]pyrimidine-5-carbonyl}-2,8-diazaspiro[4.5]decan-1-one] | 292
11 | COc1cc(N2CCC3(CCN(C(=O)c4cn5[nH]c(=O)cc5nc4C)CC3)C2=O)ccc1-c1cn[nH]c1 [Example 131, 2-[3-methoxy-4-(1H-pyrazol-4-yl)phenyl]-8-{5-methyl-2-oxo-1H,2H-pyrazolo[1,5-a]pyrimidine-6-carbonyl}-2,8-diazaspiro[4.5]decan-1-one] | 2090
12 | COc1cc(N2CCC3(CCN(C(=O)c4cc(C)n5nc[nH]c(=O)c45)CC3)C2=O)ccc1-c1cn[nH]c1 [Example 132, 2-[3-methoxy-4-(1H-pyrazol-4-yl)phenyl]-8-{7-methyl-4-oxo-3H,4H-pyrrolo[2,1-f][1,2,4]triazine-5-carbonyl}-2,8-diazaspiro[4.5]decan-1-one] | 3
13 | COc1cc(N2CCC3(CCN(C(=O)c4cn5nc[nH]c(=O)c5c4C)CC3)C2=O)ccc1-c1cn[nH]c1 [Example 133, 2-[3-methoxy-4-(1H-pyrazol-4-yl)phenyl]-8-{5-methyl-4-oxo-3H,4H-pyrrolo[2,1-f][1,2,4]triazine-6-carbonyl}-2,8-diazaspiro[4.5]decan-1-one] | 88
14 | COc1cc(N2CCC3(CCN(C(=O)c4ccc(-n5ccncc5=O)cc4F)CC3)C2=O)ccc1-c1cn[nH]c1 [Example 136, 8-[2-fluoro-4-(2-oxo-1,2-dihydropyrazin-1-yl)benzoyl]-2-[3-methoxy-4-(1H-pyrazol-4-yl)phenyl]-2,8-diazaspiro[4.5]decan-1-one] | 4.2
15 | COc1cc(N2CCC3(CCN(C(=O)c4ccc(N5CCCOC5=O)cc4)CC3)C2=O)ccc1-c1cn[nH]c1 [Example 137, 2-[3-methoxy-4-(1H-pyrazol-4-yl)phenyl]-8-[4-(2-oxo-1,3-oxazinan-3-yl)benzoyl]-2,8-diazaspiro[4.5]decan-1-one] | 7.1
16 | COc1cc(N2CCC3(CCN(C(=O)c4ccc(N5CCNC5=O)cc4)CC3)C2=O)ccc1-c1cn[nH]c1 [Example 139, 2-[3-methoxy-4-(1H-pyrazol-4-yl)phenyl]-8-[4-(2-oxoimidazolidin-1-yl)benzoyl]-2,8-diazaspiro[4.5]decan-1-one] | 3.7

Continued by falling IC50, values first:

Row | IC50 [nM] | SMILES
17 | 1240 | COc1cc(N2CCC3(CCN(C(=O)C4CCN(c5ncccn5)CC4)CC3)C2=O)ccc1-c1cn[nH]c1 [Example 140, 2-[3-methoxy-4-(1H-pyrazol-4-yl)phenyl]-8-[1-(pyrimidin-2-yl)piperidine-4-carbonyl]-2,8-diazaspiro[4.5]decan-1-one]
18 | 200 | COc1cc(N2CCC3(CCN(C(=O)c4cnc(Cl)cn4)CC3)C2=O)ccc1-c1cn[nH]c1 [Example 115, 8-(5-chloropyrazine-2-carbonyl)-2-[3-methoxy-4-(1H-pyrazol-4-yl)phenyl]-2,8-diazaspiro[4.5]decan-1-one]
19 | 88 | COc1cc(N2CCC3(CCN(C(=O)c4ncc(Br)cn4)CC3)C2=O)ccc1-c1cn[nH]c1 [Example 116, 8-(5-bromopyrimidine-2-carbonyl)-2-[3-methoxy-4-(1H-pyrazol-4-yl)phenyl]-2,8-diazaspiro[4.5]decan-1-one]
20 | 75 | COc1cc(N2CCC3(CCN(C(=O)c4ccc(-c5noc(C(C)C)n5)cc4)CC3)C2=O)ccc1-c1cn[nH]c1 [Example 134, 2-[3-methoxy-4-(1H-pyrazol-4-yl)phenyl]-8-{4-[5-(propan-2-yl)-1,2,4-oxadiazol-3-yl]benzoyl}-2,8-diazaspiro[4.5]decan-1-one]
21 | 70 | COc1cc(N2CCC3(CCN(C(=O)c4ccc5oc(C)nc5c4)CC3)C2=O)ccc1-c1cn[nH]c1 [Example 119, 2-[3-methoxy-4-(1H-pyrazol-4-yl)phenyl]-8-(2-methyl-1,3-benzoxazole-5-carbonyl)-2,8-diazaspiro[4.5]decan-1-one]
22 | 63 | COc1cc(N2CCC3(CCN(C(=O)c4ccc5nc(C(F)(F)F)cnc5c4)CC3)C2=O)ccc1-c1cn[nH]c1 [Example 138, 2-[3-methoxy-4-(1H-pyrazol-4-yl)phenyl]-8-[2-(trifluoromethyl)quinoxaline-6-carbonyl]-2,8-diazaspiro[4.5]decan-1-one]
23 | 62 | COc1cc(N2CCC3(CCN(C(=O)c4ccc(-n5cccn5)cc4)CC3)C2=O)ccc1-c1cn[nH]c1 [Example 124, 2-[3-methoxy-4-(1H-pyrazol-4-yl)phenyl]-8-[4-(1H-pyrazol-1-yl)benzoyl]-2,8-diazaspiro[4.5]decan-1-one]
24 | 39 | COc1cc(N2CCC3(CCN(C(=O)c4ccc(Oc5ccc(Cl)cc5)cc4)CC3)C2=O)ccc1-c1cn[nH]c1 [Example 112, 8-[4-(4-chlorophenoxy)benzoyl]-2-[3-methoxy-4-(1H-pyrazol-4-yl)phenyl]-2,8-diazaspiro[4.5]decan-1-one]
25 | 34 | COc1cc(N2CCC3(CCN(C(=O)c4cc(C(C)C)n[nH]4)CC3)C2=O)ccc1-c1cn[nH]c1 [Example 110, 2-[3-methoxy-4-(1H-pyrazol-4-yl)phenyl]-8-[3-(propan-2-yl)-1H-pyrazole-5-carbonyl]-2,8-diazaspiro[4.5]decan-1-one]
26 | 11.2 | COc1cc(N2CCC3(CCN(C(=O)c4ccc(N5CCOCC5)c(F)c4)CC3)C2=O)ccc1-c1cn[nH]c1 [Example 127, 8-[3-fluoro-4-(morpholin-4-yl)benzoyl]-2-[3-methoxy-4-(1H-pyrazol-4-yl)phenyl]-2,8-diazaspiro[4.5]decan-1-one]
27 | 10 | COc1cc(N2CCC3(CCN(C(=O)c4ccc(-c5cncnc5)cc4)CC3)C2=O)ccc1-c1cn[nH]c1 [Example 135, 2-[3-methoxy-4-(1H-pyrazol-4-yl)phenyl]-8-[4-(pyrimidin-5-yl)benzoyl]-2,8-diazaspiro[4.5]decan-1-one]
28 | 7 | COc1cc(N2CCC3(CCN(C(=O)c4ccc(-n5ccccc5=O)cc4)CC3)C2=O)ccc1-c1cn[nH]c1 [Example 117, 2-[3-methoxy-4-(1H-pyrazol-4-yl)phenyl]-8-[4-(2-oxo-1,2-dihydropyridin-1-yl)benzoyl]-2,8-diazaspiro[4.5]decan-1-one]
29 | 6 | COc1cc(N2CCC3(CCN(C(=O)c4cc5n(n4)CCNC5=O)CC3)C2=O)ccc1-c1cn[nH]c1 [Example 114, 2-[3-methoxy-4-(1H-pyrazol-4-yl)phenyl]-8-{4-oxo-4H,5H,6H,7H-pyrazolo[1,5-a]pyrazine-2-carbonyl}-2,8-diazaspiro[4.5]decan-1-one]
30 | 3 | COc1cc(N2CCC3(CCN(C(=O)c4ccc(N5CCOC5=O)cc4)CC3)C2=O)ccc1-c1cn[nH]c1 [Example 141, 2-[3-methoxy-4-(1H-pyrazol-4-yl)phenyl]-8-[4-(2-oxo-1,3-oxazolidin-3-yl)benzoyl]-2,8-diazaspiro[4.5]decan-1-one]
31 | 0.4 | COc1cc(N2CCC3(CCN(C(=O)c4ccc(N5CCNCC5)cc4)CC3)C2=O)ccc1-c1cn[nH]c1 [Example 130, 2-[3-methoxy-4-(1H-pyrazol-4-yl)phenyl]-8-[4-(piperazin-1-yl)benzoyl]-2,8-diazaspiro[4.5]decan-1-one]
32 | 0.3 | COc1cc(N2CCC3(CCN(C(=O)c4ccc(N5CCN(C)CC5)cc4)CC3)C2=O)ccc1-c1cn[nH]c1 [Example 120, 2-[3-methoxy-4-(1H-pyrazol-4-yl)phenyl]-8-[4-(4-methylpiperazin-1-yl)benzoyl]-2,8-diazaspiro[4.5]decan-1-one]
